Data from ChEMBL document CHEMBL4177593, “Recently reported biological activities of pyrazole compounds” (Bioorg Med Chem, 2017).
Values after ≈ are worked out from the molar mass of the structure shown.

Tests used:
Rattus norvegicus [1] = experiment: Anti inflammatory activity in Wistar rat assessed as carrageenan-induced paw edema at 10 mg/kg, po pretreated for 15 mins followed by carrageenan addition measured after 90 mins (reference value: 38.7%); type: functional
[2] = Selectivity index, ratio of IC50 for rat seminal vesicles COX1 to IC50 for recombinant human COX2
MCF7 [3] = experiment: Antiproliferative activity against human MCF7 cells after 48 hrs by MTT assay; type: functional, cell-based; conditions: MCF7, 48 h
B16-F10 = experiment: Antiproliferative activity against mouse B16F10 cells after 48 hrs by MTT assay; type: functional, cell-based; conditions: B16-F10, 48 h
Rattus norvegicus [4] = experiment: Anti inflammatory activity in rat assessed as inhibition of carrageenan-induced hind paw edema at 50 mg/kg measured after 1 to 4 hrs by plethysmographic method relative to control; type: functional
HeLa = experiment: Antiproliferative activity against human HeLa cells after 48 hrs by SRB assay; type: functional, cell-based
A549 = experiment: Antiproliferative activity against human A549 cells after 48 hrs by SRB assay; type: functional, cell-based; conditions: A549, 48 h
MCF7 [5] = experiment: Antiproliferative activity against human MCF7 cells after 48 hrs by SRB assay; type: functional, cell-based; conditions: MCF7, 48 h
IMR-32 = experiment: Antiproliferative activity against human IMR32 cells after 48 hrs by SRB assay; type: functional, cell-based; conditions: IMR-32, 48 h
Leishmania amazonensis [6] = experiment: Antileishmanial activity against Leishmania amazonensis amastigotes assessed as reduction in […] lode in early log phase after 24 hrs; type: functional, organism-based
Leishmania amazonensis [7] = experiment: Antileishmanial activity against Leishmania amazonensis amastigotes assessed as reduction in […] lode in late log phase after 24 hrs; type: functional, organism-based
Leishmania amazonensis [8] = experiment: Antileishmanial activity against Leishmania amazonensis axenic amastigotes after 24 hrs; type: functional, organism-based
SMMC-7721 = experiment: Antiproliferative activity against human SMMC7721 cells after 48 hrs by MTT assay; type: functional, cell-based; conditions: SMMC-7721, 48 h
SGC-7901 = experiment: Antiproliferative activity against human SGC7901 cells after 48 hrs by MTT assay; type: functional, cell-based; conditions: SGC-7901, 48 h
MCF7 [9] = experiment: Antiproliferative activity against human MCF7 cells; type: functional, cell-based
Pseudomonas aeruginosa = experiment: Antibacterial activity against Pseudomonas aeruginosa MTCC 1688; type: functional
Streptococcus pyogenes = experiment: Antibacterial activity against Streptococcus pyogenes MTCC 442; type: functional
Staphylococcus aureus [10] = experiment: Antibacterial activity against Staphylococcus aureus MTCC 96; type: functional
Yarrowia lipolytica = experiment: Antifungal activity against Candida lipolytica after 48 hrs; type: functional
Candida albicans = experiment: Antifungal activity against Candida albicans after 48 hrs; type: functional
Escherichia coli [11] = experiment: Antibacterial activity against Escherichia coli MTCC 443; type: functional
Bacillus subtilis = experiment: Antibacterial activity against Bacillus subtilis MTCC 441 by broth microdilution method; type: functional, organism-based
Leishmania amazonensis [12] = experiment: Antileishmanial activity against Leishmania amazonensis MHOM/BR/77/LTB0016 promastigotes after 24 hrs; type: functional, organism-based; conditions: MHOM/BR/77/LTB0016, 24 h
Leishmania infantum = experiment: Antileishmanial activity against Leishmania infantum MCAN/BR/97/P142 promastigotes after 24 hrs; type: functional, organism-based; conditions: MCAN/BR/97/P142, 24 h
K562 = experiment: Growth inhibition in human K562 cells at 10^-5 mol/L relative to control; type: functional; conditions: read-out: GI
[13] = system: Mycobacterium tuberculosis; experiment: Antitubercular activity against Mycobacterium tuberculosis H37Rv at 100 ug/ml by broth microdilution method relative to control; type: functional
Rattus norvegicus [14] = experiment: Ulcerogenic activity in albino rat assessed as ulcer index at 20 mg/kg, po administered daily for 3 successive days in two equal doses at 0 and 12 hrs measured at 6 hrs post last dose by magnifying lens based assay; type: toxicity, organism-based; conditions: in vivo
Rattus norvegicus [15] = experiment: Anti inflammatory activity in Wistar rat assessed as inhibition of carrageenan-induced paw edema at 5 mg/kg, po pretreated for 30 mins followed by carrageenan addition measured up to 4 hrs relative to control; type: functional
Ovis aries = species: Ovis aries; experiment: Selectivity index, ratio of IC50 for ovine COX1 to IC50 for ovine COX2
Escherichia coli [16] = experiment: Antibacterial activity against Escherichia coli MTCC 443 by broth microdilution method; type: functional
Staphylococcus aureus [17] = experiment: Antibacterial activity against Staphylococcus aureus; type: functional
Fusarium oxysporum = experiment: Antifungal activity against Fusarium oxysporum f. sp. albedinis; type: functional, organism-based
Leishmania amazonensis [18] = experiment: Antileishmanial activity against Leishmania amazonensis amastigotes after 24 hrs by MTT assay; type: functional, organism-based

## Cc1cc(OCCOc2ccc(/C=N/c3ccccc3)cc2)n(-c2ccccc2)n1
Rattus norvegicus [1]
  Activity: 13.4%
[2]
  Ratio IC50: 0.51

## C#Cc1cccc(Nc2ncnc3cc(OCCOC)c(OCCOC)cc23)c1 [ERLOTINIB]
MCF7 [3]
  IC50: 80 nM
B16-F10
  IC50: 120 nM

## O=C(O)Cc1ccccc1Nc1c(Cl)cccc1Cl [DICLOFENAC]
Rattus norvegicus [4]
  inhibition in vivo at 50 mg/kg: 86.7%

## COc1cc(/C=C/c2nnc(-c3cc(-c4ccc(Cl)cc4)n[nH]3)o2)cc(OC)c1OC
HeLa
  IC50: 2300 nM
A549
  IC50: 1500 nM
MCF7 [5]
  IC50: 1800 nM
IMR-32
  IC50: 3.2 µM

## CC(=O)N1CCN(c2ccc(OCC3COC(Cn4ccnc4)(c4ccc(Cl)cc4Cl)O3)cc2)CC1 (stereo not drawn) [KETOCONAZOLE]
Leishmania amazonensis [6]
  IC50: 12.5 µM
Leishmania amazonensis [7]
  IC50: 29.8 µM
Leishmania amazonensis [8]
  IC50: 164 µM

## O=c1[nH]cc(F)c(=O)[nH]1 [FLUOROURACIL]
SMMC-7721
  IC50: 19.2 µg/mL (≈ 148 µM)
SGC-7901
  IC50: 16 µg/mL (≈ 123 µM)

## COC(=O)Nc1nc2cc(C(=O)c3cccs3)ccc2[nH]1 [NOCODAZOLE]
HeLa
  IC50: 1200 nM
A549
  IC50: 900 nM
MCF7 [5]
  IC50: 1250 nM
IMR-32
  IC50: 1.3 µM

## Cc1ccc(-c2cc(C(F)(F)F)nn2-c2ccc(S(N)(=O)=O)cc2)cc1
[2]
  Ratio IC50: 0.0028

## COc1ccc(/C=C/C(=O)OCc2cn(-c3ccccc3)nc2-c2ccc(OC)cc2)cc1
MCF7 [3]
  IC50: 300 nM

## Clc1ccc(-c2cc(-c3nnc(/C=C/c4ccc5c(c4)OCO5)o3)[nH]n2)cc1Cl
HeLa
  IC50: 2800 nM
A549
  IC50: 2300 nM
MCF7 [5]
  IC50: 3900 nM
IMR-32
  IC50: 4.1 µM

## CCCCCCCCCCn1nc(-c2cc(Br)ccc2Cl)c(C(N)=O)c1N
MCF7 [9]
  IC50: 2500 nM

## Cc1cccc(NS(=O)(=O)c2ccccc2)c1-c1ccn(S(=O)(=O)c2ccccc2)n1
Leishmania amazonensis [6]
  IC50: 6.7 µM
Leishmania amazonensis [7]
  IC50: 41.3 µM
Leishmania amazonensis [8]
  IC50: 56 µM

## O=c1[nH]/c(=C\c2nc3cc(Cl)ccc3s2)s/c1=C\c1cn(-c2ccccc2)nc1-c1ccc(Br)cc1
Pseudomonas aeruginosa
  Activity: 200 µg/mL
Streptococcus pyogenes
  Activity: 100 µg/mL
Staphylococcus aureus [10]
  Activity: 100 µg/mL

## COc1ccccc1C1CC(c2ccccc2)=NN1C(=N)N (stereo not drawn)
Yarrowia lipolytica
  MIC: 15.6 to 62.5 µg/mL (≈ 53 to 212 µM)
Candida albicans
  MIC: 15.6 to 62.5 µg/mL (≈ 53 to 212 µM)

## O=c1[nH]/c(=C\c2nc3cc(Cl)ccc3s2)s/c1=C\c1cn(-c2ccccc2)nc1-c1ccc(Cl)cc1
Pseudomonas aeruginosa
  Activity: 200 µg/mL
Escherichia coli [11]
  Activity: 100 µg/mL

## CCn1cc(C(=O)O)c(=O)c2cc(F)c(N3CCNCC3)cc21 [NORFLOXACIN]
Bacillus subtilis
  IC50: 100 µg/mL (≈ 313 µM)
  MIC: 100 µg/mL (≈ 313 µM)

## Cc1nn(-c2ccc(S(=O)(=O)Nc3ccccc3)cc2)c(Cl)c1Br
Leishmania amazonensis [12]
  IC50: 70 µM
Leishmania infantum
  IC50: 59 µM

## Cc1cc(C)n(C(=O)c2cc(-c3ccc(F)cc3F)ccc2O)n1
K562
  inhibition of growth at 10 µM: 70%

## CO[C@H]1/C=C/O[C@@]2(C)Oc3c(C)c(O)c4c(O)c(c(/C=N/N5CCN(C)CC5)c(O)c4c3C2=O)NC(=O)/C(C)=C\C=C\[C@H](C)[C@H](O)[C@@H](C)[C@@H](O)[C@@H](C)[C@H](OC(C)=O)[C@@H]1C [RIFAMPIN]
[13]
  inhibition at 100 µg/mL: 98%

## N=C(N)c1ccc(OCCCCCOc2ccc(C(=N)N)cc2)cc1 [PENTAMIDINE]
Leishmania amazonensis [12]
  IC50: 21 µM
Leishmania infantum
  IC50: 62 µM

## CC(=O)NC1=NN(C(C)=O)C(c2cn(-c3ccccc3)nc2-c2ccc(O)cc2)S1 (stereo not drawn)
Rattus norvegicus [4]
  inhibition in vivo at 50 mg/kg: > 84.2%

## COc1ccc2c(c1)c(CC(=O)O)c(C)n2C(=O)c1ccc(Cl)cc1 [INDOMETHACIN]
Rattus norvegicus [14]
  UI: 12.82

## COc1ccc(-c2cc(-c3ccccc3)nn2CC(=O)Nc2ccc(S(N)(=O)=O)cc2)cc1
Rattus norvegicus [15]
  inhibition in vivo at 5 mg/kg: 81%
Rattus norvegicus [14]
  UI: 2.79
Ovis aries
  Ratio IC50: 11.1

## CS(=O)(=O)Nc1ccc([N+](=O)[O-])cc1Oc1ccccc1 [NIMESULIDE]
Rattus norvegicus [1]
  Activity: 23.4%

## CN[C@@H]1[C@H](O[C@H]2[C@H](O[C@H]3[C@H](O)[C@@H](O)[C@H](N=C(N)N)[C@@H](O)[C@@H]3N=C(N)N)O[C@@H](C)[C@]2(O)C=O)O[C@@H](CO)[C@H](O)[C@H]1O [STREPTOMYCIN]
Escherichia coli [16]
  Activity: 500 µg/mL
Staphylococcus aureus [17]
  Activity: 500 µg/mL

## C/C(O)=C/C(=O)c1cc(C)n(C)n1
Fusarium oxysporum
  IC50: 55 nM
  MIC: 0.055 µM (≈ 9.91 ng/mL)

## Cc1ccc(/N=C/c2ccc(OCCOc3cc(C)nn3-c3ccccc3)cc2)cc1
Rattus norvegicus [1]
  Activity: 19.4%
[2]
  Ratio IC50: 0.44

## CC1(C)S[C@@H]2[C@H](NC(=O)[C@H](N)c3ccccc3)C(=O)N2[C@H]1C(=O)O [AMPICILLIN]
Streptococcus pyogenes
  Activity: 200 µg/mL
Escherichia coli [11]
  Activity: 100 µg/mL
Staphylococcus aureus [10]
  Activity: 200 µg/mL
Bacillus subtilis
  IC50: 250 µg/mL (≈ 715 µM)
  MIC: 250 µg/mL (≈ 715 µM)

## CC(=O)NC1=NN(C(C)=O)C(c2cn(-c3ccccc3)nc2-c2ccc([N+](=O)[O-])cc2)S1 (stereo not drawn)
Rattus norvegicus [4]
  inhibition in vivo at 50 mg/kg: > 84.2%

## COc1ccc(-n2ncc(-c3nnn[nH]3)c2N)cc1
Leishmania amazonensis [18]
  IC50: 22.3 µM

## Cc1n[nH]c(O)c1C(NNC(N)=O)c1ccc(O)cc1 (stereo not drawn)
Escherichia coli [16]; Escherichia coli, MTCC 443
  MIC: 0.25 µg/mL (≈ 0.902 µM)
